Laboratory results as given in the kinase profiling compilation of Christmann-Franck et al. (2016).

Tests used:
Experiment in all cases: KINOMEscan competition binding
Settings in all cases: compound 10.0 µM
MAPK10 (human) = MAPK10 (human) (UniProt P53779)
TAOK1 (human) = TAOK1 (human) (UniProt Q7L7X3)
MST1R (human) = MST1R (human) (UniProt Q04912)
FER (human) = FER (human) (UniProt P16591)
ZAP70 (human) = ZAP70 (human) (UniProt P43403)
EPHA6 (human) = EPHA6 (human) (UniProt Q9UF33)
AKT3 (human) = AKT3 (human) (UniProt Q9Y243)
DMPK (human) = DMPK (human) (UniProt Q09013)
[1] = target: JAK1 JH2 pseudokinase (human) (UniProt P23458)
PRKG1 (human) = PRKG1 (human) (UniProt Q13976)
TYRO3 (human) = TYRO3 (human) (UniProt Q06418)
PAK1 (human) = PAK1 (human) (UniProt Q13153)
PIM1 (human) = PIM1 (human) (UniProt P11309)
TEK (human) = TEK (human) (UniProt Q02763)
MST4 (human) = MST4 (human) (UniProt Q9P289)
TNK1 (human) = TNK1 (human) (UniProt Q13470)
[2] = tested on: EIF2AK4 KD2 (human), Q9P2K8 [S808G]
ACVR2A (human) = ACVR2A (human) (UniProt P27037)
CHEK2 (human) = CHEK2 (human) (UniProt O96017)
[3] = target: JAK1 JH1 catalytic (human) (UniProt P23458)
RIPK1 (human) = RIPK1 (human) (UniProt Q13546)
EPHA7 (human) = EPHA7 (human) (UniProt Q15375)
BMPR1A (human) = BMPR1A (human) (UniProt P36894)
MAPK4 (human) = MAPK4 (human) (UniProt P31152)
NUAK2 (human) = NUAK2 (human) (UniProt Q9H093)
CDK17 (human) = CDK17 (human) (UniProt Q00537)
CSK (human) = CSK (human) (UniProt P41240)
NEK6 (human) = NEK6 (human) (UniProt Q9HC98)
TNK2 (human) = TNK2 (human) (UniProt Q07912)
CDKL2 (human) = CDKL2 (human) (UniProt Q92772)
CSNK2A1 (human) = CSNK2A1 (human) (UniProt P68400)
RPS6KA5 KD2 (human) = RPS6KA5 KD2 (human) (UniProt O75582)
PIM3 (human) = PIM3 (human) (UniProt Q86V86)
RPS6KA2 KD1 (human) = RPS6KA2 KD1 (human) (UniProt Q15349)
TNNI3K (human) = TNNI3K (human) (UniProt Q59H18)
STK35 (human) = STK35 (human) (UniProt Q8TDR2)
PRKCD (human) = PRKCD (human) (UniProt Q05655)
FGFR2 (human) = FGFR2 (human) (UniProt P21802)
[4] = tested on: FLT3 (human), P36888 [N841I]
STK3 (human) = STK3 (human) (UniProt Q13188)

Measured: kinase still bound, per cent of control

Chain of STK3 (human) (Q13188 whole entry, looked up): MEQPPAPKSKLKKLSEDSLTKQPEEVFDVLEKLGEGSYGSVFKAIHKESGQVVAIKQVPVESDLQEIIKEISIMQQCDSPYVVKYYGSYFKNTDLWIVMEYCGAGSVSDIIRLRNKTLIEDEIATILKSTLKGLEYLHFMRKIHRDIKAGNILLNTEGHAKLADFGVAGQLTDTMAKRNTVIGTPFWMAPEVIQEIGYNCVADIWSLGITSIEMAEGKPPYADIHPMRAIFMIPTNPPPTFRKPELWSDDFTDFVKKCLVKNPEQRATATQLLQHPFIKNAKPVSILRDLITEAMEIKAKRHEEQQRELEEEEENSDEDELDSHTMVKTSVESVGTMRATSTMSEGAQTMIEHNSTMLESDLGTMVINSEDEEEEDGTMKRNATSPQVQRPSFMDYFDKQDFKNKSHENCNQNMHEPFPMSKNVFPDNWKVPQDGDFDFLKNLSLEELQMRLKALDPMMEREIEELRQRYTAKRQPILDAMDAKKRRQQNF
Chain of PRKG1 (human) (Q13976 whole entry, looked up): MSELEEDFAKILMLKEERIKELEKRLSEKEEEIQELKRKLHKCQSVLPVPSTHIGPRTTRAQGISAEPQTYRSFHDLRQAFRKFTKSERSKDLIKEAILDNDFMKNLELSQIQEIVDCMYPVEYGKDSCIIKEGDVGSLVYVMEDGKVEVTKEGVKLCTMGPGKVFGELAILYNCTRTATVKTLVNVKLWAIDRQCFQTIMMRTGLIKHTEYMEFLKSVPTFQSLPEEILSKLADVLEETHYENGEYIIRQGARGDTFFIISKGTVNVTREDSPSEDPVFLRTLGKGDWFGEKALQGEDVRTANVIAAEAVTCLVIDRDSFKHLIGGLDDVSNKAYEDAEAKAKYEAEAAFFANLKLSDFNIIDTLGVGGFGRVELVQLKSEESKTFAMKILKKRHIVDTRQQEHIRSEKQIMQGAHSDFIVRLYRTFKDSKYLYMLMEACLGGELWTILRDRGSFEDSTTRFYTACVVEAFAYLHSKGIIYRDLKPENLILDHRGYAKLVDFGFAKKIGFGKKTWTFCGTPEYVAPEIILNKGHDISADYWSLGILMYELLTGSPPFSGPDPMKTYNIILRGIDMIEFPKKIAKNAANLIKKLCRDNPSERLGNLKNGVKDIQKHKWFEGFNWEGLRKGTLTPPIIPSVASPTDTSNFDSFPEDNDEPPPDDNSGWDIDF
Chain of CHEK2 (human) (O96017 whole entry, looked up): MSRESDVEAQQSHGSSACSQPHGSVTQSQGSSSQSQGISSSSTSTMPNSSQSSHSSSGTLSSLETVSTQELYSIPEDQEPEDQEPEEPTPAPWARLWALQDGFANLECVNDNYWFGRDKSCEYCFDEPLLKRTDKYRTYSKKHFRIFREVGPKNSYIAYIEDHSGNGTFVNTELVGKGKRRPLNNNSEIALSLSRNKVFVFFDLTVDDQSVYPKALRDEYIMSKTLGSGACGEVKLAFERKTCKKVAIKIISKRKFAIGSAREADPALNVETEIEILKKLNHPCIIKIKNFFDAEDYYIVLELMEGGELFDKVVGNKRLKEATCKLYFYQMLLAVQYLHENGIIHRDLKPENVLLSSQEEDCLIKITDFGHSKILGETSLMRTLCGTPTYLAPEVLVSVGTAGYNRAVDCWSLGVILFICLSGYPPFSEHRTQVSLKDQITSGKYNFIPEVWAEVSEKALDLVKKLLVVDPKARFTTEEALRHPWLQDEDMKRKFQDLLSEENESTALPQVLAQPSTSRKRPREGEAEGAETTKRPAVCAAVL
Chain of MST4 (human) (Q9P289 whole entry, looked up): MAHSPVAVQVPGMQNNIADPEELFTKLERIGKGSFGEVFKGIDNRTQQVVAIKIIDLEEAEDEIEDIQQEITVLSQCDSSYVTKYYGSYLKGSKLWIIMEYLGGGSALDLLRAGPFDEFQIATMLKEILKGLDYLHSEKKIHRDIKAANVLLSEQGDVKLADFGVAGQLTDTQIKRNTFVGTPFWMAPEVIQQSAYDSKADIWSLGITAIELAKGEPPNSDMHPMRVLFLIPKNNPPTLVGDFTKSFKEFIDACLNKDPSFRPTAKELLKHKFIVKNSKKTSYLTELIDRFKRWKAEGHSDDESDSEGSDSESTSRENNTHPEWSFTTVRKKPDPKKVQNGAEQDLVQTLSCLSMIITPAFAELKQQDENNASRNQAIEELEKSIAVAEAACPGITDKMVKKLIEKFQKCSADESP
Chain of PRKCD (human) (Q05655 whole entry, looked up): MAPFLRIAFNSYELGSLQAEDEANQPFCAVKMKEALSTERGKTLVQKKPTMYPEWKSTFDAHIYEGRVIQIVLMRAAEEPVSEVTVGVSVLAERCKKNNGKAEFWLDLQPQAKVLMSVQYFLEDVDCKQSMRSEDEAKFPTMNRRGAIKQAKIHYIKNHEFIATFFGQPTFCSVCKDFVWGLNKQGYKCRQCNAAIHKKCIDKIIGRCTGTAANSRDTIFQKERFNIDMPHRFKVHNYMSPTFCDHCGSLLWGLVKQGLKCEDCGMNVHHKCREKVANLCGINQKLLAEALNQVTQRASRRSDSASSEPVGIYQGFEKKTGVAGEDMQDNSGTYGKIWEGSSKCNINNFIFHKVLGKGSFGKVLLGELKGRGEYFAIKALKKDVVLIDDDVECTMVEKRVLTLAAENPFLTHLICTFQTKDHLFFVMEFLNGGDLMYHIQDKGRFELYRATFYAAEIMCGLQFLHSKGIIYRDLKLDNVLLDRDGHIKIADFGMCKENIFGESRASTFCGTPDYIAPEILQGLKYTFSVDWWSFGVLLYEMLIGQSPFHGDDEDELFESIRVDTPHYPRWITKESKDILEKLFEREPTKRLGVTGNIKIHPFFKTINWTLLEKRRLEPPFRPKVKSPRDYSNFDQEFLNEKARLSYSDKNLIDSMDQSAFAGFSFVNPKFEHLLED
Chain of TEK (human) (Q02763 whole entry, looked up): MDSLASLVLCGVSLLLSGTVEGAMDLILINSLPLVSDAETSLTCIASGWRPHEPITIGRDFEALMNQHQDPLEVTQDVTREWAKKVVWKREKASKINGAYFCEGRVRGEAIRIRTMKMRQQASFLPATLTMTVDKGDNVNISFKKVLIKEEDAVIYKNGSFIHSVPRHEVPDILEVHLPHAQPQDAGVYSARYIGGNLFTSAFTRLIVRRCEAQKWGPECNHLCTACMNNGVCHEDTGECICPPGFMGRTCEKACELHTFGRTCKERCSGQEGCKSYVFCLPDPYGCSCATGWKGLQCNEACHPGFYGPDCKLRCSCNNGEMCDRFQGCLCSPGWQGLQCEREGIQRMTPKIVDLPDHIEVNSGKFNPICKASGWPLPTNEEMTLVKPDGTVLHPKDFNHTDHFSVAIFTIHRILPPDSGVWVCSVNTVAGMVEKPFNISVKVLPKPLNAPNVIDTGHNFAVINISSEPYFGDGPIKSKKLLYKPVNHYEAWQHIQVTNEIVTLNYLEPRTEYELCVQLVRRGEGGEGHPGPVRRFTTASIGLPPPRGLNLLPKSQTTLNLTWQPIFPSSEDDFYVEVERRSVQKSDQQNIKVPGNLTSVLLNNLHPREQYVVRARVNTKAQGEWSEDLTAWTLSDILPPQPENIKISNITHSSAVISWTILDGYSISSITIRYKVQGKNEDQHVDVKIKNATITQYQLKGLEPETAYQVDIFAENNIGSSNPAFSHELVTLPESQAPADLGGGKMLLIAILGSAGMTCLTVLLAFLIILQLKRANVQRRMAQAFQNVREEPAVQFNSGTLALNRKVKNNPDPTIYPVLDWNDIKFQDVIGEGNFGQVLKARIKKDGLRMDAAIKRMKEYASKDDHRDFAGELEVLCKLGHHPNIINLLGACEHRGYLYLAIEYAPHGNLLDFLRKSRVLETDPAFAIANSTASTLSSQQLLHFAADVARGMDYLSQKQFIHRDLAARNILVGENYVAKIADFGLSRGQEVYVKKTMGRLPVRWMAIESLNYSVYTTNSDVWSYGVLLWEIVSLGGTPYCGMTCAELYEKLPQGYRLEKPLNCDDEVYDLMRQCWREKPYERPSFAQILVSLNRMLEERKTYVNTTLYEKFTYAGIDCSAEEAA
Chain of STK35 (human) (Q8TDR2 whole entry, looked up): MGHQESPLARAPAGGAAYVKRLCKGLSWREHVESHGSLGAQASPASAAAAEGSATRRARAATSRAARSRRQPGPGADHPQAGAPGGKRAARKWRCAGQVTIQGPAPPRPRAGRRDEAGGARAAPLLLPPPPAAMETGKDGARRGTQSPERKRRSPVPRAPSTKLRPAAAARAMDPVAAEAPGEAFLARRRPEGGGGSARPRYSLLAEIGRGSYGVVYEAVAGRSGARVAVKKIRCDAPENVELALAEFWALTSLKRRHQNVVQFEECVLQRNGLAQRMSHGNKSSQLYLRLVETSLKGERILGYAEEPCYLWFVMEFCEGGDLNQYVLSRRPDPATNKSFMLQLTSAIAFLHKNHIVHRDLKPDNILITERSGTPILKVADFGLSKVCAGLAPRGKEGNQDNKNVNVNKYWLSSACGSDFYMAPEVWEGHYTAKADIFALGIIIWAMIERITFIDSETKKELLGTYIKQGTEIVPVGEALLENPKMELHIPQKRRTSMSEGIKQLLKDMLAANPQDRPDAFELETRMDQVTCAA

CC[C@@H]1C(=O)N(C)c2cnc(Nc3ccc(C(=O)NC4CCN(C)CC4)cc3OC)nc2N1C1CCCC1
32%: TNK1 (human)
14%: RPS6KA5 KD2 (human)
not listed: STK3 (human)
100%: all other assays above

CCC(=O)N1CCN(c2ccc(-n3c(=O)ccc4cnc5ccc(-c6cnc7ccccc7c6)cc5c43)cc2C(F)(F)F)CC1
19%: TEK (human)
75%: EPHA6 (human)
71%: CSK (human)
99%: [2] | NEK6 (human)
97%: CDK17 (human)
73%: PAK1 (human)
58%: TAOK1 (human) | CDKL2 (human)
77%: AKT3 (human) | DMPK (human)
1.9%: RIPK1 (human)
86%: PRKG1 (human)
18%: STK35 (human)
66%: TNNI3K (human)
82%: [3] | PRKCD (human)
98%: EPHA7 (human)
8.8%: [4]
96%: PIM3 (human)
51%: TNK2 (human)
94%: CSNK2A1 (human)
47%: ACVR2A (human)
24%: STK3 (human)
31%: MAPK10 (human) | TYRO3 (human)
6.8%: TNK1 (human)
55%: MST1R (human) | FGFR2 (human)
76%: [1]
89%: MST4 (human)
80%: PIM1 (human) | MAPK4 (human)
not listed: FER (human)
100%: all other assays above

Cc1cc([C@@H](C)Nc2ccccc2C(=O)O)c2nc(N3CCOCC3)cc(=O)n2c1
91%: CDKL2 (human) | RPS6KA5 KD2 (human)
94%: ACVR2A (human)
95%: STK35 (human)
44%: [4]
82%: MAPK10 (human) | PRKCD (human)
98%: MAPK4 (human)
59%: TAOK1 (human)
89%: EPHA7 (human)
66%: STK3 (human)
97%: BMPR1A (human) | RPS6KA2 KD1 (human)
88%: TNNI3K (human)
84%: NUAK2 (human)
not listed: MST1R (human) | FGFR2 (human)
100%: all other assays above

OCCCNc1cc(-c2ccnc(Nc3cccc(Cl)c3)n2)ccn1
14%: CDKL2 (human)
not listed: TAOK1 (human)
100%: all other assays above
